# EP1432683B9 (Recordati Ireland Limited, priority 2001, dated 2003)
# “And” between values parts separate entries of the source, which are not always exact repeats. Equal values may be shown once. Where a name gives a salt, the structure may show the parent alone. Read-outs that look alike come from different tables or passages of the source. Marks after values point to notes of the source that are not given here.
# Legend:
# [1] = Relative bioavailability of Form (I) and Form (II) in man; assay type: in vivo
# Procedure: Blood samples were taken at 15 points from time 0 to 24 h post-dosing and plasma concentrations of lercanidipine were determined with a stereoselective analytical method HPLC-MS/MS.
# [2] = Hygroscopicity by DVS analysis; assay type: physicochemical; settings: 25°C, whole RH range tested
# Procedure: The hygroscopicity of both crystalline Forms (I) and (II) was measured with DVS analysis by means of a water absorption analyzer (SURFACE MEASUREMENT SYSTEM, Marion, Buckinghamshire, UK) according to the following working conditions: […]
# [3] = Solubility in water and in ethanol at room temperature (UV-Visible spectroscopy); assay type: physicochemical
# Text: The molar absorptivity had been previously determined in acetonitrile. The same molar absorptivity was considered for the determination in water and in ethanol. Solubility in water certainly depends on pH. The residual solid obtained by filtration of the suspension was immediately analyzed with Raman spectroscopy.
# [4] = Bioavailability of crystalline Forms (I) and (II) in dogs; assay type: in vivo, Beagle dogs
# Procedure: A study was carried out on six Beagle dogs to evaluate the bioavailability of crystalline Forms (I) and (II).
# Blood samples were taken at given times and plasma concentrations of lercanidipine were determined with a stereoselective analytical method HPLC-MS/MS, according to the following working conditions;
# Lercanidipine was extracted from dog plasma by means of a liquid-liquid extraction with a mixture of n-hexane and ethyl ether. The dry residue of the organic phase was taken up with a mixture of methanol and water and a liquid-phase chromatographic separation (LC) was carried out; the two enantiomers of lercanidipine were separated on a CHIROBIOTIC V column (Vancomycin) (particle size […], column size 150 x 4.6 mm (ASTEC, NJ, USA)) and were detected with a mass spectrometer (MS/MS) by using an electrospray technique.
# The analytical method was validated in a concentration range between 0.1 and 20 ng/ml of plasma for both enantiomers. The method has shown to be specific with an accuracy of 15%. The average concentrations of lercanidipine in the tables represent the sum of both enantiomers.
# [5] = Solubility in mixtures of water-ethanol at 25°C and 40°C; assay type: physicochemical; settings: at both 25°C and 40°C
# [6] = Dog 1, oral 3 mg/kg, hydrochloride, 3 mg/kg
# [7] = Dog 2 (not included in mean), oral 3 mg/kg, hydrochloride, 3 mg/kg
# [8] = Dog 3, oral 3 mg/kg, hydrochloride, 3 mg/kg
# [9] = Dog 4, oral 3 mg/kg, hydrochloride, 3 mg/kg
# [10] = Dog 5, oral 3 mg/kg, hydrochloride, 3 mg/kg
# [11] = Mean (n=5, Dog 2 not included), oral 3 mg/kg, hydrochloride, 3 mg/kg
smiles,measurement,setting,value
"COC(=O)C1=C(C)NC(C)=C(C(=O)OC(C)(C)CN(C)CCC(c2ccccc2)c2ccccc2)C1c1cccc([N+](=O)[O-])c1 (single isomer, unassigned) [Form (II), lercanidipine hydrochloride]",bioequivalence to Form I,[1]; 10 mg tablet,not bioequivalent to Form I
same,AUC0-t,"[1]; 10 mg tablet, single dose, geom. least square mean, 1440 min, hydrochloride",10.36 ng·h/mL
same,Cmax,"[1]; 10 mg tablet, single dose, geom. least square mean, hydrochloride",3.22 ng/mL
same,Tmax,"[1]; 10 mg tablet, single dose, median, hydrochloride",2.50* h
same,"tmax Point Estimate (T/R), median difference","[1]; Test = Form (II) tablet, Reference = Form (I) tablet (Zanedip)",0.75** h
same,mass variation,[2],< 0.05%
same,Solubility compared with Form (I),[3],less soluble than Form (I) in both solvents
same,AUC0-t,[4]; [6],54.59 ng/h/mL
same,Cmax,[4]; [6],18.46 ng/mL
same,Tmax,[4]; [6],3.00 h
same,AUC0-t,[4]; [7],119.77 ng/h/mL
same,Cmax,[4]; [7],52.19 ng/mL
same,Tmax,[4]; [7],1.50 h
same,AUC0-t,[4]; [8],75.62 ng/h/mL
same,Tmax,[4]; [8],1.50 h
same,AUC0-t,[4]; [9],173.82 ng/h/mL
same,Tmax,[4]; [9],4.00 h
same,AUC0-t,[4]; [10],142.34 ng/h/mL
same,Cmax,[4]; [10],55.38 ng/mL
same,Tmax,[4]; [10],2.00 h
same,Tmax,"[4]; Dog 6, oral 3 mg/kg",6.00 h
same,AUC0-t,"[4]; Dog 6, oral 3 mg/kg, hydrochloride, 3 mg/kg",61.91 ng/h/mL
same,AUC0-t,[4]; [11],104.68 ng/h/mL
same,Cmax,[4]; [11],36.17 ng/mL
same,Tmax,[4]; [11],3.00 h
same,concentration in plasma of lercanidipine (S+R),"[4]; Time 0 h, Dog 1, oral 3 mg/kg",0.00 ng/mL
same,concentration in plasma of lercanidipine (S+R),"[4]; Time 0 h, Dog 2 (not included in mean), oral 3 mg/kg",0.00 ng/mL
same,concentration in plasma of lercanidipine (S+R),"[4]; Time 0 h, Dog 3, oral 3 mg/kg",0.00 ng/mL
same,concentration in plasma of lercanidipine (S+R),"[4]; Time 0 h, Dog 4, oral 3 mg/kg",0.00 ng/mL
same,concentration in plasma of lercanidipine (S+R),"[4]; Time 0 h, Dog 5, oral 3 mg/kg",0.00 ng/mL
same,concentration in plasma of lercanidipine (S+R),"[4]; Time 0 h, Dog 6, oral 3 mg/kg",0.00 ng/mL
same,concentration in plasma of lercanidipine (S+R),"[4]; Time 0 h, Mean (Dog 2 not included), oral 3 mg/kg",0.00 ng/mL
same,concentration in plasma of lercanidipine (S+R),"[4]; Time 0.5 h, Dog 1, oral 3 mg/kg, hydrochloride, 3 mg/kg",0.00 ng/mL
same,concentration in plasma of lercanidipine (S+R),"[4]; Time 0.5 h, Dog 2 (not included in mean), oral 3 mg/kg, hydrochloride, 3 mg/kg, 30 min",22.67 ng/mL
same,concentration in plasma of lercanidipine (S+R),"[4]; Time 0.5 h, Dog 4, oral 3 mg/kg",0.00 ng/mL
same,concentration in plasma of lercanidipine (S+R),"[4]; Time 0.5 h, Dog 5, oral 3 mg/kg",0.00 ng/mL
same,concentration in plasma of lercanidipine (S+R),"[4]; Time 0.5 h, Dog 6, oral 3 mg/kg",0.00 ng/mL
same,concentration in plasma of lercanidipine (S+R),"[4]; Time 1 h, Dog 1, oral 3 mg/kg, hydrochloride, 3 mg/kg",0.00 ng/mL
same,concentration in plasma of lercanidipine (S+R),"[4]; Time 1 h, Dog 2 (not included in mean), oral 3 mg/kg, hydrochloride, 3 mg/kg, 60 min",52.13 ng/mL
same,concentration in plasma of lercanidipine (S+R),"[4]; Time 1 h, Dog 6, oral 3 mg/kg",0.00 ng/mL
same,concentration in plasma of lercanidipine (S+R),"[4]; Time 1 h, Mean (Dog 2 not included), oral 3 mg/kg, hydrochloride, 3 mg/kg, 60 min",5.08 ng/mL
same,concentration in plasma of lercanidipine (S+R),"[4]; Time 1.5 h, Dog 1, oral 3 mg/kg, hydrochloride, 3 mg/kg, 90 min",0.23 ng/mL
same,concentration in plasma of lercanidipine (S+R),"[4]; Time 1.5 h, Dog 2 (not included in mean), oral 3 mg/kg, hydrochloride, 3 mg/kg, 90 min",52.19 ng/mL
same,concentration in plasma of lercanidipine (S+R),"[4]; Time 1.5 h, Dog 3, oral 3 mg/kg, hydrochloride, 3 mg/kg, 90 min",19.78 ng/mL
same,concentration in plasma of lercanidipine (S+R),"[4]; Time 1.5 h, Dog 5, oral 3 mg/kg, hydrochloride, 3 mg/kg, 90 min",32.69 ng/mL
same,concentration in plasma of lercanidipine (S+R),"[4]; Time 1.5 h, Mean (Dog 2 not included), oral 3 mg/kg, hydrochloride, 3 mg/kg, 90 min",18.32 ng/mL
same,concentration in plasma of lercanidipine (S+R),"[4]; Time 2 h, Dog 2 (not included in mean), oral 3 mg/kg, hydrochloride, 3 mg/kg, 120 min",35.45 ng/mL
same,concentration in plasma of lercanidipine (S+R),"[4]; Time 2 h, Dog 3, oral 3 mg/kg, hydrochloride, 3 mg/kg, 120 min",17.81 ng/mL
same,concentration in plasma of lercanidipine (S+R),"[4]; Time 2 h, Dog 4, oral 3 mg/kg, hydrochloride, 3 mg/kg, 120 min",38.10 ng/mL
same,concentration in plasma of lercanidipine (S+R),"[4]; Time 2 h, Dog 5, oral 3 mg/kg, hydrochloride, 3 mg/kg, 120 min",55.38 ng/mL
same,concentration in plasma of lercanidipine (S+R),"[4]; Time 2 h, Dog 6, oral 3 mg/kg, hydrochloride, 3 mg/kg, 120 min",10.19 ng/mL
same,concentration in plasma of lercanidipine (S+R),"[4]; Time 2 h, Mean (Dog 2 not included), oral 3 mg/kg, hydrochloride, 3 mg/kg, 120 min",25.82 ng/mL
same,concentration in plasma of lercanidipine (S+R),"[4]; Time 3 h, Dog 1, oral 3 mg/kg, hydrochloride, 3 mg/kg, 180 min",18.46 ng/mL
same,concentration in plasma of lercanidipine (S+R),"[4]; Time 3 h, Dog 2 (not included in mean), oral 3 mg/kg, hydrochloride, 3 mg/kg, 180 min",17.43 ng/mL
same,concentration in plasma of lercanidipine (S+R),"[4]; Time 3 h, Dog 3, oral 3 mg/kg, hydrochloride, 3 mg/kg, 180 min",15.80 ng/mL
same,concentration in plasma of lercanidipine (S+R),"[4]; Time 3 h, Mean (Dog 2 not included), oral 3 mg/kg, hydrochloride, 3 mg/kg, 180 min",23.46 ng/mL
same,concentration in plasma of lercanidipine (S+R),"[4]; Time 4 h, Dog 1, oral 3 mg/kg, hydrochloride, 3 mg/kg, 240 min",14.83 ng/mL
same,concentration in plasma of lercanidipine (S+R),"[4]; Time 4 h, Dog 2 (not included in mean), oral 3 mg/kg, hydrochloride, 3 mg/kg, 240 min",5.17 ng/mL
same,concentration in plasma of lercanidipine (S+R),"[4]; Time 4 h, Dog 4, oral 3 mg/kg, hydrochloride, 3 mg/kg, 240 min",52.64 ng/mL
same,concentration in plasma of lercanidipine (S+R),"[4]; Time 4 h, Dog 6, oral 3 mg/kg, hydrochloride, 3 mg/kg, 240 min",13.24 ng/mL
same,concentration in plasma of lercanidipine (S+R),"[4]; Time 4 h, Mean (Dog 2 not included), oral 3 mg/kg, hydrochloride, 3 mg/kg, 240 min",23.69 ng/mL
same,concentration in plasma of lercanidipine (S+R),"[4]; Time 6 h (last sampling time), Mean (Dog 2 not included), oral 3 mg/kg, hydrochloride, 3 mg/kg, 360 min",10.9 ± 6.8 ng/mL and 10.89 ng/mL
same,concentration in plasma of lercanidipine (S+R),"[4]; Time 6 h, Dog 1, oral 3 mg/kg, hydrochloride, 3 mg/kg, 360 min",8.05 ng/mL
same,concentration in plasma of lercanidipine (S+R),"[4]; Time 6 h, Dog 2 (not included in mean), oral 3 mg/kg, hydrochloride, 3 mg/kg, 360 min",4.50 ng/mL
same,concentration in plasma of lercanidipine (S+R),"[4]; Time 6 h, Dog 3, oral 3 mg/kg, hydrochloride, 3 mg/kg, 360 min",3.62 ng/mL
same,concentration in plasma of lercanidipine (S+R),"[4]; Time 6 h, Dog 4, oral 3 mg/kg, hydrochloride, 3 mg/kg, 360 min",17.46 ng/mL
same,concentration in plasma of lercanidipine (S+R),"[4]; Time 6 h, Dog 5, oral 3 mg/kg, hydrochloride, 3 mg/kg, 360 min",6.76 ng/mL
same,concentration in plasma of lercanidipine (S+R),"[4]; Time 6 h, Dog 6, oral 3 mg/kg, hydrochloride, 3 mg/kg, 360 min",18.56 ng/mL
same,Cmax,"[4]; dog, plasma, po, 3 mg/kg, Dog 3, read-out: Cmax",19.8 ng/mL
same,Cmax,"[4]; dog, plasma, po, 3 mg/kg, Dog 4, read-out: Cmax",52.6 ng/mL
same,Cmax,"[4]; dog, plasma, po, 3 mg/kg, Dog 6, read-out: Cmax",18.6 ng/mL
same,concentration at 0.5 h,"[4]; dog, plasma, po, 3 mg/kg, Time 0.5 h, Dog 3, read-out: concentration in plasma of lercanidipine (S+R)",6.99 ng/mL
same,concentration at 0.5 h,"[4]; dog, plasma, po, 3 mg/kg, Time 0.5 h, Mean (Dog 2 not included), read-out: concentration in plasma of lercanidipine (S+R)",1.4 ng/mL
same,concentration at 1 h,"[4]; dog, plasma, po, 3 mg/kg, Time 1 h, Dog 3, read-out: concentration in plasma of lercanidipine (S+R)",16.6 ng/mL
same,concentration at 1 h,"[4]; dog, plasma, po, 3 mg/kg, Time 1 h, Dog 4, read-out: concentration in plasma of lercanidipine (S+R)",5.5 ng/mL
same,concentration at 1 h,"[4]; dog, plasma, po, 3 mg/kg, Time 1 h, Dog 5, read-out: concentration in plasma of lercanidipine (S+R)",3.28 ng/mL
same,concentration at 1.5 h,"[4]; dog, plasma, po, 3 mg/kg, Time 1.5 h, Dog 4, read-out: concentration in plasma of lercanidipine (S+R)",35.4 ng/mL
same,concentration at 1.5 h,"[4]; dog, plasma, po, 3 mg/kg, Time 1.5 h, Dog 6, read-out: concentration in plasma of lercanidipine (S+R)",3.49 ng/mL
same,concentration at 2 h,"[4]; dog, plasma, po, 3 mg/kg, Time 2 h, Dog 1, read-out: concentration in plasma of lercanidipine (S+R)",7.63 ng/mL
same,concentration at 3 h,"[4]; dog, plasma, po, 3 mg/kg, Time 3 h, Dog 4, read-out: concentration in plasma of lercanidipine (S+R)",28.4 ng/mL
same,concentration at 3 h,"[4]; dog, plasma, po, 3 mg/kg, Time 3 h, Dog 5, read-out: concentration in plasma of lercanidipine (S+R)",40.6 ng/mL
same,concentration at 4 h,"[4]; dog, plasma, po, 3 mg/kg, Time 4 h, Dog 3, read-out: concentration in plasma of lercanidipine (S+R)",14.1 ng/mL
same,concentration at 4 h,"[4]; dog, plasma, po, 3 mg/kg, Time 4 h, Dog 5, read-out: concentration in plasma of lercanidipine (S+R)",23.7 ng/mL
same,water concentration at which the maximum solubility is reached,[5],20%
